Results from patent US12012415B2, “Compositions and methods for the diagnosis, treatment and prevention of neoplastic and neurological disorders” (AscentGene, Inc., priority 2018, dated 2024).

Experiments:
[1] = molecular target: PC4 protein (Homo sapiens, UniProt P53999); assay: PC4-DNA binding interference; conditions: high-throughput screen platform
Description: A number of small molecules were incubated with PC4 protein and DNA binding assessed.

[2] = system: hippocampal synaptic plasticity in the CA1 region; assay: In vivo electrophysiology, hippocampal CA1 LTP and DEP, Aβ1-42 AD rat model; set-up: species or system rats; conditions: last 20 min, vs Aβ1-42 group
Description: Aβ1-42 (Sigma-Aldrich, St. Louis, MO, USA;) was dissolved in double-distilled water at the concentration of 5 μg/μl, and incubated at 37° C. for one week before surgery. The rats were randomly divided into four groups as Sham (n=8), Sham+AG-1601 (n=8), Aβ1-42 (n=8) and Aβ1-42+AG-1601 (n=8). The Alzheimer's disease rat models were established by intracerebroventricular (i.c.v.) injection of Aβ1-42 aggregates. The animals were anesthetized with intraperitoneal injection of pentobarbital sodium (50 mg/kg) and placed in a stereotaxic apparatus (Narishige, Japan). The head skin of the rat was opened and two small holes were drilled on both sides of skull following the coordinates: 0.8 mm posterior to bregma, +1.4 mm lateral to sagittal suture, 4.0 mm beneath the surface of brain. Aβ1-42 (2.0 μl per side) was injected bilaterally into the lateral ventricles through micro-syringe. The needle was taken out after 5 minutes of the injection to ensure the aggregates were infused completely. Rats in the Sham group underwent the same operational process, but same volumes of double-distilled water were injected instead of Aβ1-42. After surgery, all rats were injected with penicillin (100,000 U) in the hindquarter muscle to prevent infection. The animals of Sham+AG-1601 and Aβ1-42+AG-1601 groups were intravenous injection with AG-1601 (1 mg/kg), while the same volume vehicle was implemented for the other groups every day for 14 days after one week of the postoperative recovery. The rats were placed in the stereotaxic apparatus after intraperitoneal injection of 30% urethane (0.4 g/kg Sigma-Aldrich, St. Louis, MO, USA). According to our former protocols (Gao et al., 2015) the appropriate incision on the scalp was cut to expose the skull and a small hole was drilled. […] The depth of both electrodes was optimized to acquire the proper amplitude of evoked potentials. […] A test stimulus was given every 30 s to record for 20 min as baseline. Then LTP was induced by TBS (30 trains of 12 pulses at 200 Hz) and recorded every 60s for 60 min. […]

[3] = system: NR2A, NR2B, PSD-95 and SYP; assay: Western blot of synaptic proteins in hippocampal fractions, Aβ1-42 AD rat model; assay type: in vivo, rats
Description: Aβ1-42 (Sigma-Aldrich, St. Louis, MO, USA;) was dissolved in double-distilled water at the concentration of 5 μg/μl, and incubated at 37° C. for one week before surgery. The rats were randomly divided into four groups as Sham (n=8), Sham+AG-1601 (n=8), Aβ1-42 (n=8) and Aβ1-42+AG-1601 (n=8). The Alzheimer's disease rat models were established by intracerebroventricular (i.c.v.) injection of Aβ1-42 aggregates. The animals were anesthetized with intraperitoneal injection of pentobarbital sodium (50 mg/kg) and placed in a stereotaxic apparatus (Narishige, Japan). The head skin of the rat was opened and two small holes were drilled on both sides of skull following the coordinates: 0.8 mm posterior to bregma, +1.4 mm lateral to sagittal suture, 4.0 mm beneath the surface of brain. Aβ1-42 (2.0 μl per side) was injected bilaterally into the lateral ventricles through micro-syringe. The needle was taken out after 5 minutes of the injection to ensure the aggregates were infused completely. Rats in the Sham group underwent the same operational process, but same volumes of double-distilled water were injected instead of Aβ1-42. After surgery, all rats were injected with penicillin (100,000 U) in the hindquarter muscle to prevent infection. The animals of Sham+AG-1601 and Aβ1-42+AG-1601 groups were intravenous injection with AG-1601 (1 mg/kg), while the same volume vehicle was implemented for the other groups every day for 14 days after one week of the postoperative recovery.
Three rats of each group were randomly selected to be sacrificed and their hippocampal tissues were immediately removed at 0° C. and stored at minus 80° C. For subcellular fractionation, 100- to 200-mg weight rat hippocampal tissue was used. The procedure has been described (Yang et al., 2017). The tissues were homogenized for 30 s in 500 μl TEVP buffer containing 320 mM sucrose and the homogenate was obtained. The homogenate (H) was centrifuged at 900×g for 10 min at 4° C., and the supernatant (S1) was centrifuged for 20 min at 10000×g at 4° C. to obtain the cytosolic/light membrane fraction (S2) and the crude synaptosomal fraction pellet (P2). The pellet was resuspended in TEVP buffer containing 35.6 mM sucrose solution and then centrifuged at 25,000×g for 20 min at 4° C. The supernatant was stored at minus 80° C. and referred as the synaptic vesicular fraction (LS1). The pellet, synaptic plasma membranes (LP1), was resuspended in TEVP buffer containing 1% Triton X-100 and centrifuged at 330,000×g for 30 min at 4° C. The supernatant referred as Triton X-100-soluble fraction (TSF) was stored at minus 80° C. The final pellet, the Triton X-100-insoluble fraction (TIF), was homogenized in TEVP buffer containing 1% SDS.
The concentration of every component was measured by the BCA protein assay kit (Beyotime Biotechnology, China). The components were finally boiled with 4× loading buffer at 100° C. for 15 min and stored at minus 80° C. for Western blot assay.
The total homogenate (H) and synaptosomal fractions were analyzed. Equal amounts of 20 μg from each sample were separated via 10% or 13% SDS-PAGE gels and subsequently transferred onto PVDF membranes (Millipore, USA). The membranes were blocked with 5% nonfat dry milk for 1 h at room temperature and then incubated with primary antibodies (Anti-synaptophysin, 1: 1000, Abcam; Anti-NR 2A, 1: 2000, Abcam; Anti-NR 2B, 1: 2000, Abcam; Anti-PSD-95, 1: 2000, Abcam; Anti-CREB, 1: 2000,Abcam; Anti-CREB phosphorylation, 1: 2000, Abcam; Anti-SIRT1, 1: 2000, Santa Cruz Biotechnology; Anti-β-actin, 1:5000, Santa Cruz Biotechnology) overnight at 4° C. Membranes were then incubated for 1 h at room temperature with horseradish peroxidase-conjugated secondary antibodies (Promega). After washing with TBST buffer, signals were visualized with the HRP substrate (Millipore, USA) and detected with a chemiluminescence kit (Tanon 5500, Tanon Science & Technology, China). The gray-scale value of protein band was quantified by NIH Image J program. […]

[4] = total homogenate (H), vs Aβ1-42 group

With `C=CC1=C(C)c2cc3[nH]c(cc4nc(cc5[nH]c(cc1n2)c(C)c5C=C)C(C)=C4CCC(=O)O)c(CCC(=O)NCCCc1ccccc1)c3C` [AG-1601, 3-(2,8,13,18-tetramethyl-3-(3-oxo-3-((3-phenylpropyl)amino)propyl)-12,17-divinylporphyrin-7-yl)propanoic acid] the PC4 inhibition [1] was “strong PC4 inhibitor”, the “fEPSP slopes of DEP” value [2] was “reversed effectively” and the “fEPSP slopes of LTP” value [2] was “significantly recovered”. The “fEPSP slopes of LTP” value ([2]; listed as AG-1061) was “augmented significantly”, the NR2A level ([3]; TIF fraction, vs Aβ1-42 group) was “increased” and the NR2B level ([3]; TIF fraction, vs Aβ1-42 group) was “increased”. For the same compound, the PSD-95 level ([3]; TIF fraction, vs Aβ1-42 group) was “increased”, the SYP level ([3]; TSF fraction, vs Aβ1-42 group) was “also increased” and the SYP expression ([3]; homogenates of hippocampal tissues, vs Aβ42 group) was “this effect was overcome”. For the same compound, the NR2A level [3, 4] was “increased”, the NR2B level [3, 4] was “increased” and the PSD-95 level [3, 4] was “this effect was overcome”. For the same compound, the PSD-95 level ([3]; total homogenate (H), vs Aβ1-42 group, listed as AG-1061) was “increased”.
